In US12275731B2, “Azaindole inhibitors of wild-type and mutant forms of LRRK2” (DANA-FARBER CANCER INSTITUTE, INC., priority 2018, dated 2025) one finds remaining binding data, which are given here for 3 molecules.

Each structure is given as a SMILES string.

Holding throughout (assay): KinomeScan profiling
Assay type in all cases: binding

Experiment [1] deals with T1, JAK1(JH2domain-pseudokinase) (Homo sapiens, UniProt P23458).
T1 construct: JAK1(JH2domain-pseudokinase); purchased KinomeScan®
T1 sequence (P23458 583-855 limits assumed): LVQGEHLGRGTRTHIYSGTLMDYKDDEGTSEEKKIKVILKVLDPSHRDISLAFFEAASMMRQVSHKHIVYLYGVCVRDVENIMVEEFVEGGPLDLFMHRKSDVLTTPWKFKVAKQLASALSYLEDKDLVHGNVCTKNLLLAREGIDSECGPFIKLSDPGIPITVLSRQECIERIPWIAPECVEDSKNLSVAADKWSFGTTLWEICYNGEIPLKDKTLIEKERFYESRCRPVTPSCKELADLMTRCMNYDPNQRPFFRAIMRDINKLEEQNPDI
Conditions: read-out: % control. In outline:
(§1)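 At 1 μM in DMSO, compounds are run through a broad 468-member kinase panel. The luminescent read-out is normalised so that vehicle gives 100% and a positive control gives 0%; any kinase falling below 35% is treated as a target.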

For another experiment, the target named is T2, STK36 (Homo sapiens, UniProt Q9NRP7).
T2 construct: purchased KinomeScan® (panel service)
T2 sequence (Q9NRP7 1-1315): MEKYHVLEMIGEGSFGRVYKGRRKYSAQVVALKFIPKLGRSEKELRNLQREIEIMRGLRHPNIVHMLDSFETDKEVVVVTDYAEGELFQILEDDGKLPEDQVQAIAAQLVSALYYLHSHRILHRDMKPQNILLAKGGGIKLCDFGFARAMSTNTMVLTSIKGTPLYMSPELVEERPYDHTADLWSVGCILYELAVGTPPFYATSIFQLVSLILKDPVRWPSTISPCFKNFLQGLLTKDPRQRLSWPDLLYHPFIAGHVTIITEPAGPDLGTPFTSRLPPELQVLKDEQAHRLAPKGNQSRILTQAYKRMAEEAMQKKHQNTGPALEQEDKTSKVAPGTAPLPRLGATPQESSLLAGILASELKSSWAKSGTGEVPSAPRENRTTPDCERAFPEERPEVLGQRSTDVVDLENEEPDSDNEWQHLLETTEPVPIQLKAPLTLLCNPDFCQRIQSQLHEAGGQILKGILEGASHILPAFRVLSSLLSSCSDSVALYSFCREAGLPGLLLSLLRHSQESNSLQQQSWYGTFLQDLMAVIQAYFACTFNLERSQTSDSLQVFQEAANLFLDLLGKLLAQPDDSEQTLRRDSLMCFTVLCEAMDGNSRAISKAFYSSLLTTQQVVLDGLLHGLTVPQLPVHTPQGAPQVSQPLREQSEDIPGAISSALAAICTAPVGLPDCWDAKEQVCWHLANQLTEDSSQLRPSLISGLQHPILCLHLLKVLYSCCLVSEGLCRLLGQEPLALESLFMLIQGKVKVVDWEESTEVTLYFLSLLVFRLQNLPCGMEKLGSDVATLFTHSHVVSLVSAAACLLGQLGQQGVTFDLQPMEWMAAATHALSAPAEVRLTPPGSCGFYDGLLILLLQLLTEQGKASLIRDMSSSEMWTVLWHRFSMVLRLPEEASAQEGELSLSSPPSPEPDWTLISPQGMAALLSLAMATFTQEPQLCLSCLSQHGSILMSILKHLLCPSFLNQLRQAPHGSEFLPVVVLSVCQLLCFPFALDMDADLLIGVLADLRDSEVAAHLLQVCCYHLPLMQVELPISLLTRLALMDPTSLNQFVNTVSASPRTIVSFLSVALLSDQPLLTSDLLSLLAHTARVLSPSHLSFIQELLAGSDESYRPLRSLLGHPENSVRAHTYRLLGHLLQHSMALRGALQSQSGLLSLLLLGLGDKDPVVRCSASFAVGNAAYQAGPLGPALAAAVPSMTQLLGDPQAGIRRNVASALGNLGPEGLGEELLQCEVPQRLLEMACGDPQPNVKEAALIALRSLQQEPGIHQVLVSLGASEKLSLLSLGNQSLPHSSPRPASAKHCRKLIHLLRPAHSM
Conditions: STK36, 1 μM; read-out: % control. In outline: as §1

Another experiment addresses T3, GCN2(Kin.Dom.2, S808G) (Homo sapiens, UniProt Q9P2K8, S808G).
T3 construct: GCN2(Kin.Dom.2, S808G)
T3 sequence (Q9P2K8 590-1001 S808G limits assumed): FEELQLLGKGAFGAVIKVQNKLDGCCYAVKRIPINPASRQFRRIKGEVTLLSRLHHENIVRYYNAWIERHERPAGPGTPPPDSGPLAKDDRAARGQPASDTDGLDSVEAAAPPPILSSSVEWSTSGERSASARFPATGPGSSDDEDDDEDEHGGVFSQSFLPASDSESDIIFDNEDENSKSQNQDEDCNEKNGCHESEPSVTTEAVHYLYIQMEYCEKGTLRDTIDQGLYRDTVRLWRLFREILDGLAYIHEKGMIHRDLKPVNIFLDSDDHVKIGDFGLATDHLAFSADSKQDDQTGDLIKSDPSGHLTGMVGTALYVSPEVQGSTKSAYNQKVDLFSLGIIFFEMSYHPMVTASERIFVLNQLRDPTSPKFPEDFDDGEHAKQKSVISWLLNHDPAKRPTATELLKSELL
Conditions: read-out: % control. In short, it runs like this:
as §1

The target of the next experiment is T4, SIK2 (Homo sapiens, UniProt Q9H0K1).
T4 construct: purchased KinomeScan® (panel service)
T4 sequence (Q9H0K1 whole entry): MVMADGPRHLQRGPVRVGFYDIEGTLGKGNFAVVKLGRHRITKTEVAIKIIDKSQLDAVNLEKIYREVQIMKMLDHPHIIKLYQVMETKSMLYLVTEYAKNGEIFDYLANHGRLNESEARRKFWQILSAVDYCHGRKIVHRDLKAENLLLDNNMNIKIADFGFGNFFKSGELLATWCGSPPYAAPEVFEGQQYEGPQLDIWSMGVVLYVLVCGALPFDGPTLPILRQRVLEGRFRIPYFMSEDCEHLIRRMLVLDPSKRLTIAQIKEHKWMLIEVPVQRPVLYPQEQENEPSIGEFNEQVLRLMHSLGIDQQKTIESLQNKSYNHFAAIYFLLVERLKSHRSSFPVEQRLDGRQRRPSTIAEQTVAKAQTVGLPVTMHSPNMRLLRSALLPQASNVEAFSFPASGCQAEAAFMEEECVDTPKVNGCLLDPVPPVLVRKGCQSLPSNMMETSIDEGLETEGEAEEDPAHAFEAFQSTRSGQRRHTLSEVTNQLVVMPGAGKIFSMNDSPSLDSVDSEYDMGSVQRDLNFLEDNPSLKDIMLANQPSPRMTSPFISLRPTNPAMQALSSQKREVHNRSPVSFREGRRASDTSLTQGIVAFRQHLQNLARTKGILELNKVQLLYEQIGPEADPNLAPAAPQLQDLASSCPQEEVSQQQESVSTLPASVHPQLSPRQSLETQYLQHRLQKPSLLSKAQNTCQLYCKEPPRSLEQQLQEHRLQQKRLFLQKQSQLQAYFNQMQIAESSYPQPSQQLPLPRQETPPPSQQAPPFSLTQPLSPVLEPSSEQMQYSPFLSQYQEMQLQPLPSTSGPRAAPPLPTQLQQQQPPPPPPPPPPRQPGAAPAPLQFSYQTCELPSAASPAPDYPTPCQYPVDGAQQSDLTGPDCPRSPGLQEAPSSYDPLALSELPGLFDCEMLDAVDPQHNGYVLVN
The settings on record: SIK2, 1 μM; read-out: % control. In short, it runs like this:
as §1

A further experiment addresses T5, DCAMKL2 (Homo sapiens, UniProt Q8N568).
T5 sequence (Q8N568 1-766): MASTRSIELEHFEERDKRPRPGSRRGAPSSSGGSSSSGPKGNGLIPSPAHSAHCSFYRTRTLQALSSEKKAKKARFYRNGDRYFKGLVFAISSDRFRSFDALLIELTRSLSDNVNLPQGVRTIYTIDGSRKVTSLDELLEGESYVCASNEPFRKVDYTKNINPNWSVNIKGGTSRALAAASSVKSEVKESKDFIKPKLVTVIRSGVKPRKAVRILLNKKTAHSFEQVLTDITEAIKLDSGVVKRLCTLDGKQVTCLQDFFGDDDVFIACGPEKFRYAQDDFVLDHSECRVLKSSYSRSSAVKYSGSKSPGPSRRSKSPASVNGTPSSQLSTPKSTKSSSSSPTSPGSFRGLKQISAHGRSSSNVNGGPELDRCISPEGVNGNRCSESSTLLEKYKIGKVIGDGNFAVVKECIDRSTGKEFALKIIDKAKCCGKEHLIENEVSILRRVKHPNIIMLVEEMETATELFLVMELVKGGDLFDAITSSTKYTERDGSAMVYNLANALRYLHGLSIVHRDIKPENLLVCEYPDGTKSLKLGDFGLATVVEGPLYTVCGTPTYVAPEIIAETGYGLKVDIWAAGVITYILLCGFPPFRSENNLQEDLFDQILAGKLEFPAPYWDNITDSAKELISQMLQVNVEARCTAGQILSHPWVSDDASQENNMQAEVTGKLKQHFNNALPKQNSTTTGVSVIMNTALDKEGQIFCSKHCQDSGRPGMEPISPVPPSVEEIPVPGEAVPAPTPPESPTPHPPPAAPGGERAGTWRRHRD
The settings on record: DCAMKL2, 1 μM; read-out: % control. In short, it runs like this: as §1

On to `CNc1c(-c2ccc(C(=O)N3CCC(N4CCOCC4)CC3)cc2)cnc2[nH]cc(Cl)c12` [Compound 96, (4-(3-chloro-4-(methylamino)-1H-pyrrolo[2,3-b]pyridin-5-yl)phenyl)(4-morpholinopiperidin-1-yl)methanone], for which the remaining binding at 1 µM in experiment [1] stood at 94%; on STK36, 99%; on GCN2(Kin.Dom.2, S808G), 54%; on SIK2, 85%; on DCAMKL2, 78%.
The corresponding values for `O=C(c1ccc(-c2cnc3[nH]cc(Cl)c3c2NC2CCCC2)cc1)N1CCC(N2CCOCC2)CC1` [Compound 101, (4-(3-chloro-4-(cyclopentylamino)-1H-pyrrolo[2,3-b]pyridin-5-yl)phenyl)(4-morpholinopiperidin-1-yl)methanone] are 47%, 96%, 100%, 84% and 99%.
In the case of `CNc1c(-c2cnn([C@H]3CCN(C(C)=O)C[C@@H]3F)c2)cnc2[nH]cc(Cl)c12` [Compound 77, 1-((3S,4S)-4-(4-(3-chloro-4-(methylamino)-1H-pyrrolo[2,3-b]pyridin-5-yl)-1H-pyrazol-1-yl)-3-fluoropiperidin-1-yl)ethan-1-one], the remaining binding at 1 µM in experiment [1] came out at 57%; on STK36, 100%; on GCN2(Kin.Dom.2, S808G) it was 34%; at SIK2 it was 100%; at DCAMKL2, 89%.
